{"source": "patent US8765762B2", "about": "“Pyrazolopyridazines and methods for treating retinal-degerative diseases and hearing loss associated with usher syndrome” (Usher III Initiative, priority 2012, dated 2014)", "system": "N48K Clarin-1", "assay": "Restoration of expression of N48K Clarin-1 (24 hour incubation), Example 20", "type": "cell-based", "conditions": "HEK293-Clarin-1 N48K-HA D9 cell line; 24 hr incubation with compound; HA-Clarin-1 staining per cell", "procedure": "Assay Method Showing Activity of Compounds of the Invention that Restore Expression of N48K Clarin-1 (24 Hour Incubation)\nClarin-1 is the protein encoded by the gene mutated in Usher III Syndrome (Adato et al., 2002). The most prevalent mutation in Clarin-1 in North America is N48K, which is reported to cause loss of glycosylation and a trafficking defect (Tian et al., 2009). […] Thus it is believed that restoring the trafficking of N48K Clarin-1 to the cell surface provides an avenue of intervention for Usher III Syndrome. […]\nThe HA-tagged N48K Clarin-1 was detected with an antibody against the HA tag (HA.11 Clone 16B12 Monoclonal antibody, Covance #MMS-101P) at a dilution of 1:1000 in PBS containing Triton X-100. […] The imaging of the stained cells was performed on an InCell 1000 High Content Imager (GE Healthcare), reading out the Cy3 channel for N48K Clarin-1 and the DAPI channel for nuclei. The images were analyzed and quantitated using a specific algorithm. This algorithm measured the HA-Clarin-1 staining for each cell based on the additional nuclear segmentation of the DAPI signal (FIG. 1). This algorithm measured the intensity per cell, and thus it is less sensitive for variation in cell number. Per well, approximately 2,000 cells were measured to achieve an average density per cell measurement."}
{"smiles": "O=C(Cn1nc(-c2ccccc2)c2c(Cl)c(-c3cccc(F)c3)nnc21)N1CCCC1", "note": "[Compound 11, 2-[4-chloro-5-(3-fluorophenyl)-3-phenyl-pyrazolo[3,4-c]pyridazin-1-yl]-1-pyrrolidin-1-yl-ethanone]", "values": [{"measurement": "IC50", "result": "< 2000", "unit": "nM"}]}
